Test results taken from article PMC13086964, “USP7 deubiquitinase stabilizes FAN1 to support DNA crosslink repair and suppress CAG repeat expansion” (Nature Communications, 2026).

Legend:
RPE-1 p53 KO cells = assay: apoptosis: PARP-1 and caspase-3 cleavage, RPE-1 p53 KO; assay type: cell-based, human; details: RPE-1 p53 KO cells depleted of FAN1, USP7, or both, MMC 1 μg/ml, 48 h
Description: If not stated otherwise, cells were lysed in RIPA buffer (50 mM Tris-HCl, pH 7.5, 150 mM NaCl, 1% IGEPAL, 0.5% sodium deoxycholate, 0.1% SDS) supplemented with phosphatase inhibitors (20 mM NaF and 1 mM Na3VO4) and protease inhibitors (1 mM benzamidine and 0.1 mM PMSF), incubated with Benzonase (Merck) for at least 30 min at 4 °C, and clarified by centrifugation. Proteins were resolved by SDS-PAGE and transferred to nitrocellulose membranes. Immunoblots were performed with the indicated antibodies, and proteins were visualized using the Advansta WesternBright ECL reagent and the Fusion Solo S imaging system. Relative protein levels were determined by quantification of the protein of interest band intensity normalized to the loading control with the ImageJ software. […]
the mean (dashed lines) are indicated. Representative images are shown (bottom). Scale bar: 10 μm.
This experiment was repeated three times. (B) QIBC analysis of chromatin-bound GFP-FAN1 foci in U2OSGFP-FAN1 cells were concurrently mock-treated (-) or treated (+) with MMC (150 ng/ml) and either FT671 (10 µM) or GNE-6640 (10 µM) for 24 h. […] 24 h later, cells were either mock-treated (-) or treated (+) with MMC (1 μg/ml) for 48 h and whole-cell lysates were analysed by immunoblotting. […]
Relative FAN1 protein levels were determined by quantification of FAN1 band intensity (normalized to GAPDH) with the ImageJ software. […]

FAN1-USP7 = assay: in situ proximity ligation assay (PLA), FAN1-USP7 association; assay type: cell-based, human; details: HeLa cells, MMC 150 ng/ml, 24 h
Description: HeLa parental and FAN1 KO cells were grown in the absence or presence of MMC (150 ng/ml) for 24 hours. Cells were pre-extracted with CSK buffer containing 0.5% of Triton™ X-100 (Sigma–Aldrich) for 5 min on ice and fixed in 4% formaldehyde in PBS (w/v) for 20 min at room temperature (RT). Coverslips were then washed with PBS and stored overnight at 4 °C. In situ PLA was performed using Duolink PLA technology (Sigma-Aldrich) according to the manufacturer’s instructions. In brief, coverslips were blocked for 30 min at 37 °C with blocking solution and then incubated with the respective primary antibodies for 2 h at 37 °C. Coverslips were washed three times for 5 min in Wash Buffer A (0.01 M Tris, 0.15 M NaCl, and 0.05% Tween 20). Then, Duolink anti-Mouse PLUS and anti-Rabbit MINUS PLA probes were coupled to the primary antibodies for 1 h at 37 °C. After three wash steps in Wash buffer A for 5 min, the PLA probes were ligated for 30 min at 37 °C. Coverslips were then washed three times for 5 min in Wash buffer A. Amplification using the “Duolink In Situ Detection Reagents FarRed” (Sigma-Aldrich) was performed at 37 °C for 100 min. […] Lastly, the coverslips were mounted using Vectashield Mounting Media (Vector Laboratories) containing DAPI, sealed and imaged on a Leica DMI 6000 fluorescence microscope at x63 magnification. […]

CO[C@@]12[C@H](COC(N)=O)C3=C(C(=O)C(C)=C(N)C3=O)N1C[C@@H]1N[C@@H]12 [MMC, Mitomycin C]
apoptosis (cleavage of PARP-1 and caspase-3) (RPE-1 p53 KO cells): largely recapitulated | PLA signals, FAN1-USP7 association (FAN1-USP7): significantly increased in numbers
